For one assay, the target named is T1, mTOR (Homo sapiens, UniProt P42345).
T1 construct: endogenous in cells; host or cells: Jurkat, clone E6-1 (ATCC TIB-152) cell lysate
As to the kind of experiment: mTOR kinobeads assay (competitive binding in Jurkat cell lysate, immunodetection). Particulars: kinobeads assay. An outline of the steps: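 IC50 derived from dose-response curves of mTOR captured on immobilized phenylmorpholin-chromen beads, detected by antibody dot blot with infrared fluorescence.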

Assay [1] concerns the target T2, DNA-dependent protein kinase (DNA-PK) (Homo sapiens, UniProt P78527).
T2 construct: endogenous in cells; host or cells: Jurkat, clone E6-1 (ATCC TIB-152) cell lysate
As to the kind of experiment: kinobeads assay, DNA-PK. The settings on record: kinobeads assay. Format: binding. An outline of the steps: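 Competitive binding in Jurkat cell lysate (5 mg/mL protein) against beads carrying an immobilized phenylmorpholin-chromen ligand, in DP buffer pH 7.4 with NP40, DTT and NaF. Bead-bound kinases were eluted and quantified by antibody dot blot with infrared detection, and IC50 was taken from dose-response curves of a 1:3 dilution series.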

The mark [2] stands for this setting: Table 4, read-out: Inhibition values (IC50) mTor.
Where [3] appears, read: Table 6, read-out: Inhibition values (IC50) mTOR.
[4] abbreviates: Table 4, read-out: Inhibition values (IC50) DNA-PK.
[5] abbreviates: Table 6, read-out: Inhibition values (IC50) DNAPK.

SMILES strings stand for the structures. Like-named read-outs stand apart in the source and are kept apart here. Where only a bound is given, the exact number is not on record here.

As usually defined, the IC50 is the point on the concentration scale where inhibition reaches its midpoint.

T2 sequence (P78527 whole entry): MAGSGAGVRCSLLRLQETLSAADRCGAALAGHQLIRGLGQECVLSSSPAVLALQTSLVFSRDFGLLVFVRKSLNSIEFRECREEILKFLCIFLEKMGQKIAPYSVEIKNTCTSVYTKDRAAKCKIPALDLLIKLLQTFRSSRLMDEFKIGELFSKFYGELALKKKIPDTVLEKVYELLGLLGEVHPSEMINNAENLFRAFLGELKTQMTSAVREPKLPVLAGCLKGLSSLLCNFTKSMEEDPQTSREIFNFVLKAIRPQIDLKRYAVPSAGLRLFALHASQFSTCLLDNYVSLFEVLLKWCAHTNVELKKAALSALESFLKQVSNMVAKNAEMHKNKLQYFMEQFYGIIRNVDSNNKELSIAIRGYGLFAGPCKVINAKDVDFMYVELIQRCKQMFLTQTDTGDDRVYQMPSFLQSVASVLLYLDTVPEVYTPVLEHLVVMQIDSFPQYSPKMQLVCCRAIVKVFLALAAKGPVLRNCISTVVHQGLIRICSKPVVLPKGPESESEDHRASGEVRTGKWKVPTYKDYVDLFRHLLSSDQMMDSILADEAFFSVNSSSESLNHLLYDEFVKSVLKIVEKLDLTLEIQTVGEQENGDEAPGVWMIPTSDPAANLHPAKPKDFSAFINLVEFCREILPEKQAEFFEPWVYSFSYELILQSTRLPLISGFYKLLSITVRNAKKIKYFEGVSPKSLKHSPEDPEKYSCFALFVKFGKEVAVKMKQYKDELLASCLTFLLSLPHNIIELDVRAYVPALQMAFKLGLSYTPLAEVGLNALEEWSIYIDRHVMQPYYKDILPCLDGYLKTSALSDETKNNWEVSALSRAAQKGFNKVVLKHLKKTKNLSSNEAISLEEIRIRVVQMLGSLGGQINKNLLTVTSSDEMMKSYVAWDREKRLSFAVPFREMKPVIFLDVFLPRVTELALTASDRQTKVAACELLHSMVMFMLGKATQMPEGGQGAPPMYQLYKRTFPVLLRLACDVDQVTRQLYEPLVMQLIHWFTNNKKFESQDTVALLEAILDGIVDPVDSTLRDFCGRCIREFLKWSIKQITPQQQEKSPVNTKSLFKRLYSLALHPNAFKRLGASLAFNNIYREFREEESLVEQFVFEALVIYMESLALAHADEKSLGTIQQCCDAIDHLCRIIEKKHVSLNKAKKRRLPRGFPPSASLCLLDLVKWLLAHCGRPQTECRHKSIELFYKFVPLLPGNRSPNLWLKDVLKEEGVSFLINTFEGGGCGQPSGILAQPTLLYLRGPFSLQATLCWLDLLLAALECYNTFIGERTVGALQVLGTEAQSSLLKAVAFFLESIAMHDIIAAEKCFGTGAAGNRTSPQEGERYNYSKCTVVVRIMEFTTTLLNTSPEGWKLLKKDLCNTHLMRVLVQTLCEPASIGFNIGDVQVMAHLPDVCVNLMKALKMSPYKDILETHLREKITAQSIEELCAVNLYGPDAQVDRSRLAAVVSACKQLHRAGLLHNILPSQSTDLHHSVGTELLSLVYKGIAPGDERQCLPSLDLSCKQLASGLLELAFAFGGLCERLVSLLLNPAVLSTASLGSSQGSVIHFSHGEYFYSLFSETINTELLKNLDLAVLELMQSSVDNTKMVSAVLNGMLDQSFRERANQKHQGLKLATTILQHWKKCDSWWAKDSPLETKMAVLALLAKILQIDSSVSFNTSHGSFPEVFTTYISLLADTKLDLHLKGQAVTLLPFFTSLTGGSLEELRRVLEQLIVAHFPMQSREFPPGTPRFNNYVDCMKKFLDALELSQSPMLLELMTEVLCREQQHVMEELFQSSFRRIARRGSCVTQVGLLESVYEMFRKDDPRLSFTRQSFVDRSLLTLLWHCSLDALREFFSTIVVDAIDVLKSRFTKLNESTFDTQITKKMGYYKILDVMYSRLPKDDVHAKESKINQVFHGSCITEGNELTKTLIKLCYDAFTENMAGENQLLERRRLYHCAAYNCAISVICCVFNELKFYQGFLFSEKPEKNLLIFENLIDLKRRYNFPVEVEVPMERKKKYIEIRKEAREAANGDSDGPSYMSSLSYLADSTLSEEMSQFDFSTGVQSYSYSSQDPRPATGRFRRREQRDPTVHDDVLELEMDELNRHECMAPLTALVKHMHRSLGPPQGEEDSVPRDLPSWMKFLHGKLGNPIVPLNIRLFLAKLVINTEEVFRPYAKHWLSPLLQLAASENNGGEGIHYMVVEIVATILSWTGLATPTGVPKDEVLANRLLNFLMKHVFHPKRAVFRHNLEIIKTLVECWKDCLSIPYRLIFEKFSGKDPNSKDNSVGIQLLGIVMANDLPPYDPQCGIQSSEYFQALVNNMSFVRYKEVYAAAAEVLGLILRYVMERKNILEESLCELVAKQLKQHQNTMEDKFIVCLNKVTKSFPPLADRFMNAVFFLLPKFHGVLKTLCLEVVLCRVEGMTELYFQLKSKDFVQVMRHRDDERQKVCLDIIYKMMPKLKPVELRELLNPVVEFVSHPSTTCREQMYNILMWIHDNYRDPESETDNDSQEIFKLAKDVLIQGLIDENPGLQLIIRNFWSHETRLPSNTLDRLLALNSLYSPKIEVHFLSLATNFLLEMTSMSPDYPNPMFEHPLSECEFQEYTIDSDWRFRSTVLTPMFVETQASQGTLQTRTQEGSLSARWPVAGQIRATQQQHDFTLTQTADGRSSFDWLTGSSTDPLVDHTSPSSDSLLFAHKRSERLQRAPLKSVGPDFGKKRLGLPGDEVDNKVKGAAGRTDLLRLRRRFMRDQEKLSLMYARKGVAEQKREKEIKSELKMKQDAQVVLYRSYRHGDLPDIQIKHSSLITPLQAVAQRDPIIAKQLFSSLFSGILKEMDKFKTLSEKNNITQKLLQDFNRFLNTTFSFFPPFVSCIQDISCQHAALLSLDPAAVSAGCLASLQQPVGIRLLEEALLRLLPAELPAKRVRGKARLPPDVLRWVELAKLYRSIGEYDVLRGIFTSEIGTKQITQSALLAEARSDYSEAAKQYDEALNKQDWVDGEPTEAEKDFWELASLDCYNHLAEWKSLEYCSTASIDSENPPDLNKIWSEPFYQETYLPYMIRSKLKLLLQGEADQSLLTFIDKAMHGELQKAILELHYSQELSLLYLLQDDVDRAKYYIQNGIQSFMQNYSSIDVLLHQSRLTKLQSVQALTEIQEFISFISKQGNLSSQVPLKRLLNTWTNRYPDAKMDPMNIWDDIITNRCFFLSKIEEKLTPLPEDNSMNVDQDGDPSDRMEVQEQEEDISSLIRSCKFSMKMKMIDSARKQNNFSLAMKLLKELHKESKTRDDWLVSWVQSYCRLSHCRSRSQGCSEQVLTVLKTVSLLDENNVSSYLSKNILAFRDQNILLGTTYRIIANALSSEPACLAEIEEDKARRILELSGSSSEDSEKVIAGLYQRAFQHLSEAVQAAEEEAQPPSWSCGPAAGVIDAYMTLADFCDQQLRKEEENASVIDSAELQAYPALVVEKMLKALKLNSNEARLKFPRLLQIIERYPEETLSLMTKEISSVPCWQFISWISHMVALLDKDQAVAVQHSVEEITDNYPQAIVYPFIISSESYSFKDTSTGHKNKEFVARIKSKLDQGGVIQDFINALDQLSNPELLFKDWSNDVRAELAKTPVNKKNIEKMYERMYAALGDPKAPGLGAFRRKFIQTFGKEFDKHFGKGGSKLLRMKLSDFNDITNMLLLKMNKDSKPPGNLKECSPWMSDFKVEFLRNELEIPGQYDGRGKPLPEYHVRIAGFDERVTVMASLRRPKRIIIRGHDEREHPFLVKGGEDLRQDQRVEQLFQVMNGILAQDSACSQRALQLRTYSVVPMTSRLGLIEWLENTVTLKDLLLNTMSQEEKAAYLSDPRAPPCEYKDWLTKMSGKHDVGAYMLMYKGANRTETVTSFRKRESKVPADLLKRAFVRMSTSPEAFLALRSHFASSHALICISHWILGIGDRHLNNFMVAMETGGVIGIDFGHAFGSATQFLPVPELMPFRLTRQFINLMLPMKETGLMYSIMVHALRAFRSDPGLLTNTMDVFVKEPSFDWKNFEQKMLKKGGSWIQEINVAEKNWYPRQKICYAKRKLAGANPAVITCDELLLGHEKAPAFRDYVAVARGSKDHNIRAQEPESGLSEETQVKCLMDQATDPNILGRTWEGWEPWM

As to `CCNC(=O)Nc1ccc(-c2nc3c(c(N4CCOC[C@@H]4C)n2)CN(C=O)C3)cc1` [Example 8, (S)-1-ethyl-3-(4-(6-formyl-4-(3-methylmorpholino)-6,7-dihydro-5H-pyrrolo[3,4-d]pyrimidin-2-yl)phenyl)urea], the IC50 at mTOR (setting [2]) is < 100 nM; at mTOR (setting [3]) it was < 100 nM; in assay [1] (setting [4]), > 10000 nM; in assay [1] (setting [5]), > 10000 nM.

In the case of `C[C@H]1COCCN1c1nc(-c2ccc(NC(=O)NC3CC3)cc2)nc2c1CNCC2` [Example 11, (S)-1-cyclopropyl-3-(4-(4-(3-methylmorpholino)-5,6,7,8-tetrahydropyrido[4,3-d]pyrimidin-2-yl)phenyl)urea], the half-maximal inhibitory concentration (IC50) at mTOR (setting [2]) was 100 to 1000 nM; at mTOR (setting [3]) it was 100 to 1000 nM; in assay [1] (setting [4]), > 10000 nM; in assay [1] (setting [5]), > 10000 nM.

Regarding `CCNC(=O)Nc1ccc(-c2nc3c(c(N4CCOC[C@@H]4C)n2)CNCC3)cc1` [Example 12, (S)-1-ethyl-3-(4-(4-(3-methylmorpholino)-5,6,7,8-tetrahydropyrido[4,3-d]pyrimidin-2-yl)phenyl)urea], the half-maximal inhibitory concentration (IC50) on mTOR (setting [2]) was 100 to 1000 nM; on mTOR (setting [3]), 100 to 1000 nM; in assay [1] (setting [4]), > 10000 nM; in assay [1] (setting [5]) it was > 10000 nM.

As to `CCNC(=O)Nc1ccc(-c2nc3c(c(N4CCOC[C@@H]4C)n2)CCNC3)cc1` [Example 13, (S)-1-ethyl-3-(4-(4-(3-methylmorpholino)-5,6,7,8-tetrahydropyrido[3,4-d]pyrimidin-2yl)phenyl)urea], the 50% inhibitory concentration (IC50) at mTOR (setting [2]) is < 100 nM; on mTOR (setting [3]) it was < 100 nM; in assay [1] (setting [4]) it was > 10000 nM; in assay [1] (setting [5]) it was > 10000 nM.

As to `C[C@H]1COCCN1c1nc(-c2ccc(NC(=O)NC3CC3)cc2)nc2c1CCNC2` [Example 15, (S)-1-cyclopropyl-3-(4-(4-(3-methylmorpholino)-5,6,7,8-tetrahydropyrido[3,4-d]pyrimidin-2-yl)phenyl)urea], the IC50 is < 100 nM on mTOR (setting [2]), < 100 nM on mTOR (setting [3]), > 10000 nM in assay [1] (setting [4]) and > 10000 nM in assay [1] (setting [5]).

`CNC(=O)Nc1ccc(-c2nc3c(c(N4CCOC[C@@H]4C)n2)CCNC3)cc1` [Example 16, (S)-1-methyl-3-(4-(4-(3-methylmorpholino)-5,6,7,8-tetrahydropyrido[3,4-d]pyrimidin-2-yl)phenyl)urea]: the half-maximal inhibitory concentration (IC50) on mTOR (setting [2]) is < 100 nM; at mTOR (setting [3]) it was < 100 nM; in assay [1] (setting [4]), > 10000 nM; in assay [1] (setting [5]), > 10000 nM.

For the molecule `C[C@H]1COCCN1c1nc(-c2ccc(NC(=O)NC3CC3)cc2)nc2c1CN(C(=O)C1CC1)C2` [Example 17, (S)-1-(4-(6-(cyclopropanecarbonyl)-4-(3-methylmorpholino)-6,7-dihydro-5H-pyrrolo[3,4-d]pyrimidin-2-yl)phenyl)-3-cyclopropylurea], the IC50 on mTOR (setting [2]) is < 100 nM; on mTOR (setting [3]), < 100 nM; in assay [1] (setting [4]), > 10000 nM; in assay [1] (setting [5]) it was > 10000 nM.

In the case of `CCNC(=O)Nc1ccc(-c2nc3c(c(N4CCOC[C@@H]4C)n2)CN(C(C)=O)C3)cc1` [Example 18, (S)-1-(4-(6-acetyl-4-(3-methylmorpholino)-6,7-dihydro-5H-pyrrolo[3,4-d]pyrimidin-2-yl)phenyl)-3-ethylurea], the IC50 at mTOR (setting [2]) is < 100 nM; at mTOR (setting [3]), < 100 nM; in assay [1] (setting [4]), > 10000 nM; in assay [1] (setting [5]) it was > 10000 nM.

On to `CCNC(=O)Nc1ccc(-c2nc3c(c(N4CCOC[C@@H]4C)n2)CN(C(=O)c2ccc(F)cc2)C3)cc1` [Example 19, (S)-1-ethyl-3-(4-(6-(4-fluorobenzoyl)-4-(3-methylmorpholino)-6,7-dihydro-5H-pyrrolo[3,4-d]pyrimidin-2-yl)phenyl)urea], for which the IC50 is 100 to 1000 nM at mTOR (setting [2]), 100 to 1000 nM on mTOR (setting [3]), > 10000 nM in assay [1] (setting [4]) and > 10000 nM in assay [1] (setting [5]).

For the molecule `CC(=O)N1Cc2nc(-c3ccc(NC(=O)NC4CC4)cc3)nc(N3CCOC[C@@H]3C)c2C1` [Example 20, (S)-1-(4-(6-acetyl-4-(3-methylmorpholino)-6,7-dihydro-5H-pyrrolo[3,4-d]pyrimidin-2-yl)phenyl)-3-cyclopropylurea], the IC50 is < 100 nM on mTOR (setting [2]), < 100 nM at mTOR (setting [3]), > 10000 nM in assay [1] (setting [4]) and > 10000 nM in assay [1] (setting [5]).

Consider `CCNC(=O)Nc1ccc(-c2nc3c(c(N4CCOC[C@@H]4C)n2)CN(C(=O)C(C)C)C3)cc1` [Example 21, (S)-1-ethyl-3-(4-(6-isobutyryl-4-(3-methylmorpholino)-6,7-dihydro-5H-pyrrolo[3,4-d]pyrimidin-2-yl)phenyl)urea], for which the concentration for half-maximal inhibition (IC50) on mTOR (setting [2]) was < 100 nM; on mTOR (setting [3]) it was < 100 nM; in assay [1] (setting [4]), > 10000 nM; in assay [1] (setting [5]) it was > 10000 nM.

On to `CCNC(=O)Nc1ccc(-c2nc3c(c(N4CCOC[C@@H]4C)n2)CN(C(=O)C(C)(C)C)C3)cc1` [Example 22, (S)-1-ethyl-3-(4-(4-(3-methylmorpholino)-6-pivaloyl-6,7-dihydro-5H-pyrrolo[3,4-d]pyrimidin-2-yl)phenyl)urea], for which the concentration for half-maximal inhibition (IC50) was 100 to 1000 nM on mTOR (setting [2]), 100 to 1000 nM on mTOR (setting [3]), > 10000 nM in assay [1] (setting [4]) and > 10000 nM in assay [1] (setting [5]).

Regarding `CCNC(=O)Nc1ccc(-c2nc3c(c(N4CCOC[C@@H]4C)n2)CN(C(=O)C2CC2)C3)cc1` [Example 23, (S)-1-(4-(6-(cyclopropanecarbonyl)-4-(3-methylmorpholino)-6,7-dihydro-5H-pyrrolo[3,4-d]pyrimidin-2-yl)phenyl)-3-ethylurea], the IC50 was < 100 nM at mTOR (setting [2]), < 100 nM on mTOR (setting [3]), > 10000 nM in assay [1] (setting [4]) and > 10000 nM in assay [1] (setting [5]).

As to `CCNC(=O)Nc1ccc(-c2nc3c(c(N4CCOC[C@@H]4C)n2)CCN(C(=O)c2ccc(F)cc2)C3)cc1` [Example 24, (S)-1-ethyl-3-(4-(7-(4-fluorobenzoyl)-4-(3-methylmorpholino)-5,6,7,8-tetrahydropyrido[3,4-d]pyrimidin-2-yl)phenyl)urea], the IC50 at mTOR (setting [2]) is 100 to 1000 nM; at mTOR (setting [3]), 100 to 1000 nM; in assay [1] (setting [4]) it was > 10000 nM; in assay [1] (setting [5]), > 10000 nM.

As to `C[C@H]1COCCN1c1nc(-c2ccc(NC(=O)NC3CC3)cc2)nc2c1CN(CC(C)(C)C)C2` [Example 25, (S)-1-cyclopropyl-3-(4-(4-(3-methylmorpholino)-6-neopentyl-6,7-dihydro-5H-pyrrolo[3,4-d]pyrimidin-2-yl)phenyl)urea], the half-inhibitory concentration (IC50) on mTOR (setting [2]) was 100 to 1000 nM; at mTOR (setting [3]) it was 100 to 1000 nM; in assay [1] (setting [4]), > 10000 nM; in assay [1] (setting [5]) it was > 10000 nM.

As to `CCNC(=O)Nc1ccc(-c2nc3c(c(N4CCOC[C@@H]4C)n2)CN(C)C3)cc1` [Example 26, (S)-1-ethyl-3-(4-(6-methyl-4-(3-methylmorpholino)-6,7-dihydro-5H-pyrrolo[3,4-d]pyrimidin-2-yl)phenyl)urea], the IC50 on mTOR (setting [2]) is < 100 nM; at mTOR (setting [3]), < 100 nM; in assay [1] (setting [4]), > 10000 nM; in assay [1] (setting [5]) it was > 10000 nM.

For `CCNC(=O)Nc1ccc(-c2nc3c(c(N4CCOC[C@@H]4C)n2)CCN(CC)C3)cc1` [Example 27, (S)-1-ethyl-3-(4-(7-ethyl-4-(3-methylmorpholino)-5,6,7,8-tetrahydropyrido[3,4-d]pyrimidin-2-yl)phenyl)urea], the concentration for half-maximal inhibition (IC50) at mTOR (setting [2]) was < 100 nM; on mTOR (setting [3]) it was < 100 nM; in assay [1] (setting [4]), > 10000 nM; in assay [1] (setting [5]), > 10000 nM.

Source of the values: patent US8785457B2 (Cellzome Limited, priority 2009, dated 2014).
